According to PubChem BioAssay (NCI):
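Briefly, cells in 96-well plates were exposed to five compound concentrations for 48 h, and endpoints were estimated by linear interpolation. Definition used: TGI = concentration required for complete inhibition of growth.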

Key:
Experiment in all cases: NCI-60 cell line screen, 48 h
PC-3 prostate = tested on: PC-3 prostate
SF-539 CNS = tested on: SF-539 CNS
MDA-N = tested on: MDA-N
CAKI-1 renal = tested on: CAKI-1 renal
T-47D breast = tested on: T-47D breast
NCI-H23 lung = tested on: NCI-H23 lung
OVCAR-8 ovarian = tested on: OVCAR-8 ovarian
OVCAR-3 ovarian = tested on: OVCAR-3 ovarian
SW-620 colon = tested on: SW-620 colon
MALME-3M melanoma = tested on: MALME-3M melanoma
LOX IMVI melanoma = tested on: LOX IMVI melanoma
SK-MEL-5 melanoma = tested on: SK-MEL-5 melanoma
SF-268 CNS = tested on: SF-268 CNS
KM12 colon = tested on: KM12 colon
HCT-116 colon = tested on: HCT-116 colon
HL-60(TB) leukemia = tested on: HL-60(TB) leukemia
CCRF-CEM leukemia = tested on: CCRF-CEM leukemia
NCI/ADR-RES ovarian = tested on: NCI/ADR-RES ovarian
SF-295 CNS = tested on: SF-295 CNS
MCF7 breast = tested on: MCF7 breast
MDA-MB-231 breast = tested on: MDA-MB-231 breast
IGROV1 ovarian = tested on: IGROV1 ovarian
UACC-257 melanoma = tested on: UACC-257 melanoma
RXF 393 renal = tested on: RXF 393 renal
HCT-15 colon = tested on: HCT-15 colon
M14 melanoma = tested on: M14 melanoma
SN12C renal = tested on: SN12C renal
MOLT-4 leukemia = tested on: MOLT-4 leukemia
NCI-H522 lung = tested on: NCI-H522 lung
BT-549 breast = tested on: BT-549 breast
HOP-62 NSCLC = tested on: HOP-62 NSCLC
NCI-H226 lung = tested on: NCI-H226 lung
EKVX NSCLC = tested on: EKVX NSCLC
HT29 colon = tested on: HT29 colon
HCC-2998 colon = tested on: HCC-2998 colon
OVCAR-5 ovarian = tested on: OVCAR-5 ovarian
SK-MEL-28 melanoma = tested on: SK-MEL-28 melanoma
UO-31 renal = tested on: UO-31 renal
SNB-19 CNS = tested on: SNB-19 CNS
U251 CNS = tested on: U251 CNS
SK-OV-3 ovarian = tested on: SK-OV-3 ovarian
SNB-75 CNS = tested on: SNB-75 CNS
UACC-62 melanoma = tested on: UACC-62 melanoma
SK-MEL-2 melanoma = tested on: SK-MEL-2 melanoma
OVCAR-4 ovarian = tested on: OVCAR-4 ovarian
MDA-MB-435 = tested on: MDA-MB-435
786-0 renal = tested on: 786-0 renal
ACHN renal = tested on: ACHN renal
A498 renal = tested on: A498 renal
A549 NSCLC = tested on: A549 NSCLC
HS 578T breast = tested on: HS 578T breast
RPMI-8226 leukemia = tested on: RPMI-8226 leukemia
HOP-92 NSCLC = tested on: HOP-92 NSCLC
TK-10 renal = tested on: TK-10 renal
SR leukemia = tested on: SR leukemia

Measured: TGI

COC(=O)C(=O)C(C(=O)OC)C(=O)C(=O)Nc1ccccc1C(N)=O (stereo not given)
> 100 µM: all assays above
